Laboratory results from US11648289B2, “Antibacterial method” (priority 2016, dated 2023).
No end group written: not given here.

Columns and labels:
[1] = test system: S. aureus (5); settings: Table 6B
Protocol: (§1) All the strains (see below) used in minimal inhibitory concentration (MIC) assays (Ovchinnikov et al., 2017, Front Microbiol., 8, p774, doi:10.3389/fmicb.2017.00774) were grown in BHI medium (Oxoid) at 30° C. without shaking. The tested strains were obtained from the LMG collection. […] NisinZ and micrococcin P1 were purified from source. Synthesized peptides were solubilized to concentrations of 10.0-0.1 mg/ml in 0.1% (vol/vol) trifluoroacetic acid and stored at −20° C. until use. Garvicin KS is made up of 3 peptides:
(§2) Bacteriocin activity was determined using a microtitre plate assay. The plates were incubated at 30° C. for 8 h and the growth was measured spectrophotometrically at 600 nm (A600) with 15 min intervals using SPECTROstarNano (BMG LABTECH, Germany). The MIC was defined as the bacteriocin concentration that inhibited the growth of the indicator strain by at least 50% in 200 μl culture (i.e., 50% of the turbidity of the control culture without bacteriocin).

[2] = test system: SH 4016; assay: microbe, parasite or virus in culture; settings: SH 4016 (S. haemolyticus)
Protocol: as §1, §2

[3] = test system: Sa 3328; assay: microbe, parasite or virus in culture; settings: Sa 3328 (S. aureus)
Protocol: as §1, §2

[4] = test system: Sa3324; assay: microbe, parasite or virus in culture; settings: Sa3324 (S. aureus)
Protocol: as §1, §2

[5] = test system: Sa3323; assay: microbe, parasite or virus in culture; settings: Sa3323 (S. aureus)
Protocol: as §1, §2

[6] = test system: Sa ATCC 33591; assay: microbe, parasite or virus in culture; settings: Sa ATCC 33591 (S. aureus)
Protocol: as §1, §2

[7] = test system: SH 4015; assay: microbe, parasite or virus in culture; settings: SH 4015 (S. haemolyticus)
Protocol: as §1, §2

[8] = test system: Sa 3242; assay: microbe, parasite or virus in culture; settings: Sa 3242 (S. aureus)
Protocol: as §1, §2

[9] = test system: S. pseudointermedius (3); settings: S. pseudointermedius (3), Table 6B
Protocol: as §1, §2

Sequence | MIC [1] | MIC [2] | MIC [3] | MIC [4] | MIC [5] | MIC [6] | MIC [7] | MIC [8] | MIC [9]
MKFKFNPTGTIVKKLTQYEIAWFKNKHGYYPWEIPRC [EntK1] | >25 µg/mL | – | – | – | – | – | – | – | –
MLAKIKAMIKKFPNPYTLAAKLTTYEINWYKQQYGRYPWERPVA [EntEJ97] | – | 12.5 µg/mL | 6.25 µg/mL | 12.5 µg/mL | 6.25 µg/mL | >50 µg/mL | 12.5 µg/mL | 6.25 µg/mL | 12.5 µg/mL
